Columns and labels:
[1] = tested on: Ba/F3-CCDC6-RET cell xenograft tumor model; test: Analysis of tumor growth inhibition (TGI); type: in vivo, BALB/c nude female mice; details: 10 mg/kg D0-D13 / 5 mg/kg D14-D17 / 2.5 mg/kg D18-D28, BID
Procedure: Ba/F3-CCDC6-RET cell strain was cultured using 1640 medium (Biological Industries)+10% fetal bovine serum (BI)+1% double antibody (Penicillin Streptomycin solution, Coring, USA) at 37° C. with 5% CO2 and subcultured twice a week. When the cell saturation is 80-90%, cells were collected, counted, and inoculated subcutaneously into the right axillary of BALB/c nude female mice (6-8 weeks). After the inoculation was completed, the tumor growth status was observed day by day. When the average tumor volume reached about 165.77 mm^3, the mice were randomly divided into groups, with 6 mice per group, and administration was started.
The health status and death of the animals were detected daily. Routine examinations included tumor growth, activity, diet, weight, eyes, hair and other abnormal behaviors of the animals, and the tumor volume and weight were measured twice a week (Tuesday and Friday).
The inhibitory effect of the compound on tumor growth was evaluated by the relationship between tumor volume and time. The tumor volume was measured by vernier caliper, with the formula being TV=0.5 a×b^2, wherein, “a” was the long diameter of the tumor and “b” was the short diameter of the tumor. […]
it was calculated by the following formula: […]

RET (V804M) = RET (V804M) (Homo sapiens, UniProt P07949, V804M); test: In vitro enzyme activity test, RET (V804M) kinase; type: biochemical; details: ATP 30 μM
Procedure: (§1) The enzyme activity was experimentally detected by Z'-LYTE™ kinase test, and the inhibitory effect of the compound on RET and RET (V804M) kinase was evaluated with the IC50 value of the compound as an indicator. The concentration of the compound used for the RET and RET (V804M) kinase test was diluted by a factor of 3, giving 10 concentrations from 3 μM to 0.152 nM. The content of DMSO in the detection reaction was 1%. Basic reaction buffer, 20 mM hydroxyethyl piperazine-ethanesulfonic acid (Hepes) (pH 7.5) buffer, 10 mM MgCl2, 1 mM ethylene glycol bis(aminoethyl ether)tetraacetic acid (EGTA), 0.02% polyoxyethylene dodecyl ether (Brij35), 0.02 mg/mL bovine serum protein, 0.1 mM Na3VO4, 2 mM dithiothreitol (DTT) and 1% DMSO. The compound to be tested was dissolved in 100% DMSO system and diluted to 10 mM for use. Integra Viaflo Assist was used for solution dilution. Test conditions: The concentration of RET enzyme was […], the concentration of the peptide substrate CHKtide was 1000 μM, and the concentration of ATP was 20 μM; and the concentration of RET (V804M) enzyme was […], the concentration of substrate peptide was 1000 μM, and the concentration of ATP was 30 μM. […]. Phosphoric acid with a concentration of 0.5% was added to the kinase reaction solution to stop the reaction, and Envision instrument was used for plate reading. […]

[2] = Pharmacokinetic evaluation in mice (IV and PO); type: in vivo; details: mouse, plasma, female Balb/c mice
Procedure: Experimental procedure: A 0.1 mg/mL clear solution of the test compound in the corresponding solvent medium (see Table 22) was injected into female Balb/c mice (fasting overnight, 7-9 weeks old) via tail vein at a dose of 0.2 mg/kg. About 30 μL of blood was collected from jugular vein or tail vein at 0.0833, 0.25, 0.5, 1.0, 2.0, 4.0, 8.0 and 24 h after intravenous administration. 0.2 mg/mL of the test compound suspended in the corresponding solvent medium (see Table 22) was given to female Balb/c mice (fasting overnight, 7-9 weeks old) by gavage at a dose of 2 mg/kg. The experimental conditions were detailed in Table 22. At 0.0833, 0.25, 0.5, 1.0, 2.0, 4.0, 6.0, 8.0 and 24 h after oral administration, about 30 μL of blood was collected from the jugular vein or tail vein of the female Balb/c mice. The blood was placed in an anticoagulant tube in which EDTA-K2 had been added, and plasma was separated by centrifugation. The plasma concentration was determined by LC-MS/MS method, and the relative pharmacokinetic parameters were calculated using WinNonlin™ Version 6.3 (Pharsight, Mountain View, CA) pharmacokinetic software by non-compartment model linear logarithmic trapezoidal method. [table]

RET = RET (Homo sapiens, UniProt P07949); test: In vitro enzyme activity test, RET kinase; type: biochemical; details: ATP 20 μM
Procedure: as §1

[3] = Solid stability experiment, high temperature and high humidity (XRPD); type: physicochemical
Source text: For samples placed under high temperature and high humidity, use aluminum foil to seal the bottle, and prick some holes on the aluminum foil to ensure that the sample can fully contact with the ambient air. The samples placed under different conditions were sampled for XRPD detection on Days 5 and 10, and the test results were compared with the initial test results on Day 0.

[4] = Solid stability study, long-term conditions (XRPD); type: physicochemical; details: for Crystal form (XRPD): 3 months
Procedure: The flasks were placed under 40° C./75% RH conditions for 3 months or under 25° C./60% RH conditions for 3 months, then sampled for XRPD detection, and the detection results were compared with the initial test results of Day 0.

[5] = Hygroscopicity study by dynamic vapor sorption (DVS); type: physicochemical; details: 25° C. and 80% RH
Procedure: • Instrument model: SMS DVS Intrinsic dynamic vapor sorption instrument • Test conditions: A sample (10-15 mg) is taken and placed in a DVS sample tray for testing.
Detailed DVS Parameters are as Follows: • Temperature: 25° C. • Balance: dm/dt=0.01%/min (shortest: 10 min, longest: 180 min) • Drying: at 0% RH for 120 min • RH (%) test gradient: 10% • RH (%) test gradient range: 0%-90%-0%
Hygroscopicity Assessment is Classified as Follows:
SMS DVS Intrinsic Dynamic Vapor Sorption Instrument

Sequence of RET (V804M) (P07949 29-1114 V804M): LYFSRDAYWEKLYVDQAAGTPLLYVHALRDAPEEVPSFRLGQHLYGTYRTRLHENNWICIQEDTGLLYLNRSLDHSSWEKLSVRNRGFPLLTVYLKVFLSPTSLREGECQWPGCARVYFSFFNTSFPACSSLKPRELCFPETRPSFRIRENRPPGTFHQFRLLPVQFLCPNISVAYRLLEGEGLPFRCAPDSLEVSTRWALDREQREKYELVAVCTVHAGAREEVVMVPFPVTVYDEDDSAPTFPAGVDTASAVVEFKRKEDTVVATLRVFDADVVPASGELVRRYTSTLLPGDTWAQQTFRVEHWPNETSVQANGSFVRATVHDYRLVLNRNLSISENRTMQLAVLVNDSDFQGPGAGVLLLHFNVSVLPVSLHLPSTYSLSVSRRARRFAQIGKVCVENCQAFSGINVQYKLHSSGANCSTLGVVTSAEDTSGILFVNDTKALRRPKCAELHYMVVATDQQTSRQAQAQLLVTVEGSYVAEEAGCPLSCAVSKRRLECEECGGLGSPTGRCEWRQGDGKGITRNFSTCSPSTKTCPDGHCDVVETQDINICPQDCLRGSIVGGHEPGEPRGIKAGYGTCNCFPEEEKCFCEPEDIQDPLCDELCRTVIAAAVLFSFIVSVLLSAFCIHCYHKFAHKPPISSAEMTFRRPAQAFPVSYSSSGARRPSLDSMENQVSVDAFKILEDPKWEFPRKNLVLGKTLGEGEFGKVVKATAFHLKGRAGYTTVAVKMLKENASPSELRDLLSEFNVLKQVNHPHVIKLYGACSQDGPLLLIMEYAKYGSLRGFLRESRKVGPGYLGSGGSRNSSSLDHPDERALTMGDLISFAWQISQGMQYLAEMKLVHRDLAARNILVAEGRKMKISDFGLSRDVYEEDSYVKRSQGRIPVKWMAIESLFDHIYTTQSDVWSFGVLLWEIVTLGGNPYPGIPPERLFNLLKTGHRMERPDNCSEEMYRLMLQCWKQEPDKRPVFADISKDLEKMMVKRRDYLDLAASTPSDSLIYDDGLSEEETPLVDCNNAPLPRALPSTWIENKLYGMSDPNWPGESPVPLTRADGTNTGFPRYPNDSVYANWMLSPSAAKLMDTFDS
Sequence of RET (P07949 29-1114): as the sequence (P07949 29-1114 V804M) above, with M776V counted along it

COc1ccc(CN2C3CC2CN(c2cnc(-c4cc(C5=CCOCC5)cn5ncc(C#N)c45)cn2)C3)cn1 [listing 1 of 2 here]
TGI % (tumor volume on Day 23 after administration) [1]: 98%
IC50 (RET (V804M)): 5.86 nM
AUC(0-t) ([2]; IV 0.2 mg/kg): 2.79 µM·h
clearance ([2]; IV 0.2 mg/kg, read-out: Cl (plasma clearance)): 2.3 mL/min/kg
half-life ([2]; IV 0.2 mg/kg, read-out: T1/2 (elimination half-life) (converted)): 2.6 h
Vd ([2]; IV 0.2 mg/kg, read-out: Vdss (apparent steady-state distribution volume)): 0.5 L/kg
AUC(0-t) ([2]; PO 2 mg/kg): 26.9 µM·h
Cmax ([2]; PO 2 mg/kg): 5.34 µM
Tmax ([2]; PO 2 mg/kg): 2 h
IC50 (RET): 0.72 nM

COc1ccc(CN2C3CC2CN(c2cnc(-c4cc(C5=CCOCC5)cn5ncc(C#N)c45)cn2)C3)cn1 [listing 2 of 2 here]
Crystal form (XRPD) ([3]; High humidity (room temperature/relative humidity 92.5%, open), Day 5): Crystal form A
Crystal form (XRPD) ([3]; High humidity (room temperature/relative humidity 92.5%, open), Day 10): Crystal form A
Crystal form (XRPD) ([3]; High temperature (60° C., open), Day 5): Crystal form A
Crystal form (XRPD) ([3]; High temperature (60° C., open), Day 10): Crystal form A
Solid stability (in words) ([3]; high temperature and high humidity): good stability
Crystal form (XRPD) ([4]; 25° C./60% RH): Crystal form A
Crystal form (XRPD) ([4]; 40° C./75% RH): Crystal form A
Crystal form change (in words) ([4]; all stability conditions (40° C./75% RH, 25° C./60% RH, 3 months)): no crystal form change
Solid stability (in words) ([4]; long-term conditions): good stability
Classification of hygroscopicity [5]: slightly hygroscopic
ΔW (hygroscopic weight gain) [5]: 0.8%

Reference: US20230365596A1, “CRYSTAL FORMS OF PYRIDOPYRAZOLE COMPOUNDS AND PREPARATION METHOD THEREFOR” (GUANGZHOU BAIYUNSHAN PHARMACEUTICAL HOLDINGS CO., LTD. …, priority 2020, published 2023)
